Laboratory results reported in the supplement of paper PMC10883282.

Key:
Assay in all cases: standardised AUC of viability dose-response curve (72 h) (fraction (0-1)); higher = less growth inhibition (more resistant)
A204 = system: A204
Summary of the method: (§1)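 Sarcoma cell lines in 384-well plates were treated in triplicate for 72 h with 2.5 µl of compound dilution series (compound-plate series 10 mM to 0.0002 mM, 1:3 steps). ATPLite viability was scaled 1 (full) to 0 (none) and fitted per drug and cell line with a four-parameter log-logistic model. The standardised area under the dose-response curve in log-dose space (modified drexplorer computeAUC) runs from 1 (no response) to 0 (full response).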

G401 = system: G401
Summary of the method: as §1

HS729 = system: HS729
Summary of the method: as §1

HT1080 = system: HT1080
Summary of the method: as §1

KHOS-240S = system: KHOS-240S
Summary of the method: as §1

KHOS-NP = system: KHOS-NP
Summary of the method: as §1

MES-SA = system: MES-SA
Summary of the method: as §1

RD-ES = system: RD-ES
Summary of the method: as §1

RD = system: RD
Summary of the method: as §1

SK-ES-1 = system: SK-ES-1
Summary of the method: as §1

SK-LMS-1 = system: SK-LMS-1
Summary of the method: as §1

SW1353 = system: SW1353
Summary of the method: as §1

SW684 = system: SW684
Summary of the method: as §1

SW872 = system: SW872
Summary of the method: as §1

SW982 = system: SW982
Summary of the method: as §1

SYO-1 = system: SYO-1
Summary of the method: as §1

VA-ES-BJ = system: VA-ES-BJ
Summary of the method: as §1

| Compound | standardised AUC (A204) | standardised AUC (G401) | standardised AUC (HS729) | standardised AUC (HT1080) | standardised AUC (KHOS-240S) | standardised AUC (KHOS-NP) | standardised AUC (MES-SA) | standardised AUC (RD-ES) | standardised AUC (RD) | standardised AUC (SK-ES-1) | standardised AUC (SK-LMS-1) | standardised AUC (SW1353) | standardised AUC (SW684) | standardised AUC (SW872) | standardised AUC (SW982) | standardised AUC (SYO-1) | standardised AUC (VA-ES-BJ) |
| --- | --- | --- | --- | --- | --- | --- | --- | --- | --- | --- | --- | --- | --- | --- | --- | --- | --- |
| N#CCNC(=O)c1ccc(-c2ccnc(Nc3ccc(N4CCOCC4)cc3)n2)cc1 [MOMELOTINIB] | 0.829 | 0.889 | 0.922 | 1 | 0.91 | 0.979 | 0.863 | 0.944 | 0.994 | 0.815 | 0.941 | 0.893 | 0.907 | 0.898 | 0.861 | 0.839 | 0.964 |
| Cc1ccc(Nc2nccc(N(C)c3ccc4c(C)n(C)nc4c3)n2)cc1S(N)(=O)=O [PAZOPANIB] | 0.699 | 0.914 | 0.91 | 0.999 | 0.951 | 0.978 | 0.964 | 0.988 | 0.997 | 0.966 | 0.974 | 0.98 | 0.99 | 0.984 | 0.987 | 0.78 | 1 |
| CCN1C(=O)N(c2c(F)c(OC)cc(OC)c2F)Cc2cnc3[nH]c(CN4CCOCC4)cc3c21 [PEMIGATINIB] | 0.685 | 0.696 | 0.748 | 0.97 | 0.88 | 0.991 | 0.822 | 0.942 | 0.938 | 0.839 | 0.924 | 0.861 | 0.951 | 0.946 | 0.889 | 0.804 | 0.951 |
| COc1cc(OC)c(/C=C/S(=O)(=O)Cc2ccc(OC)c(NCC(=O)O)c2)c(OC)c1 [RIGOSERTIB] | 0.779 | 0.852 | 0.882 | 0.707 | 0.636 | 0.805 | 0.681 | 0.644 | 0.712 | 0.584 | 0.719 | 0.822 | 0.851 | 0.854 | 0.748 | 0.827 | 0.755 |
| COCCNc1cc(NC(=O)N2CCCc3cc(CN4CCN(C)CC4=O)c(C=O)nc32)ncc1C#N [ROBLITINIB] | 0.963 | 0.979 | 0.971 | 0.996 | 0.983 | 0.994 | 0.975 | 0.978 | 0.992 | 0.976 | 0.988 | 0.995 | 0.994 | 1 | 0.997 | 0.959 | 0.994 |
| Cc1cc2cc(Oc3ccnc(Nc4cccc(CS(=O)(=O)NCCN(C)C)c4)n3)ccc2[nH]1 [SULFATINIB] | 0.805 | 0.909 | 0.874 | 0.99 | 0.931 | 0.982 | 0.95 | 0.962 | 0.964 | 0.955 | 0.965 | 0.97 | 0.966 | 0.96 | 0.924 | 0.759 | 0.987 |
| CCN(CC)CCNC(=O)c1c(C)[nH]c(/C=C2\C(=O)Nc3ccc(F)cc32)c1C [SUNITINIB] | 0.558 | 0.907 | 0.804 | 0.864 | 0.815 | 0.88 | 0.829 | 0.755 | 0.836 | 0.716 | 0.908 | 0.855 | 0.876 | 0.813 | 0.754 | 0.648 | 0.881 |
| Cn1ncnc1[C@H]1c2n[nH]c(=O)c3cc(F)cc(c23)N[C@@H]1c1ccc(F)cc1 [TALAZOPARIB] | 0.79 | 0.817 | 0.936 | 0.83 | 0.86 | 0.919 | 0.675 | 0.433 | 0.832 | 0.376 | 0.905 | 0.836 | 0.956 | 0.826 | 0.749 | 0.48 | 0.725 |
| O=c1sn(-c2cccc3ccccc23)c(=O)n1Cc1ccccc1 [TIDEGLUSIB] | 0.994 | 0.951 | 0.913 | 0.999 | 0.983 | 0.99 | 0.971 | 0.985 | 0.996 | 0.975 | 0.99 | 0.966 | 0.964 | 0.976 | 0.993 | 0.962 | 0.972 |
| O=C1NC(=O)[C@@H](c2cn3c4c(cccc24)CCC3)[C@@H]1c1c[nH]c2ccccc12 [TIVANTINIB] | 0.844 | 0.865 | 0.896 | 0.796 | 0.782 | 0.867 | 0.754 | 0.768 | 0.789 | 0.718 | 0.79 | 0.879 | 0.883 | 0.859 | 0.792 | 0.804 | 0.829 |
| Cc1[nH]c(/C=C2\C(=O)Nc3ccc(F)cc32)c(C)c1C(=O)NCCN1CCCC1 [TOCERANIB] | 0.669 | 0.923 | 0.739 | 0.908 | 0.841 | 0.931 | 0.82 | 0.778 | 0.957 | 0.795 | 0.891 | 0.926 | 0.937 | 0.864 | 0.833 | 0.632 | 0.918 |
| CC(C)Oc1ccc(-c2nn([C@@H](C)c3oc4ccc(F)cc4c(=O)c3-c3cccc(F)c3)c3ncnc(N)c23)cc1F [UMBRALISIB] | 0.969 | 0.983 | 0.939 | 0.984 | 0.983 | 0.994 | 0.989 | 0.993 | 0.998 | 0.985 | 0.966 | 0.949 | 0.937 | 0.987 | 1 | 0.97 | 0.982 |
| CC[C@@H]1CN(C(=O)NCC(F)(F)F)C[C@@H]1c1cnc2cnc3[nH]ccc3n12 [UPADACITINIB] | 0.97 | 0.961 | 0.915 | 0.976 | 0.956 | 0.975 | 0.977 | 0.994 | 0.993 | 0.988 | 0.974 | 0.945 | 0.984 | 0.951 | 0.979 | 0.913 | 0.962 |
| Clc1ccc(Nc2nnc(Cc3ccncc3)c3ccccc23)cc1 [VATALANIB] | 0.864 | 0.971 | 0.989 | 1 | 0.978 | 1 | 0.998 | 0.99 | 0.995 | 0.998 | 0.975 | 0.979 | 0.988 | 0.994 | 0.997 | 0.937 | 1 |
